Laboratory results: article PMC5748751, “Study of Structure and Permeability Relationship of Flavonoids in Caco-2 Cells” (Nutrients, 2017)
Where two headings read alike, the source gives them in different places. Marks after values point to notes of the source that are not given here.

Legend:
[1] = Cell viability (MTT) assay of flavonoids in Caco-2 cells; assay type: cell-based; details: human
Description: The cytotoxicity of flavonoids and colchicine was evaluated by MTT assay. The cells were grown in 96-well plates at a density of 1 × 10^4 cells/well. After incubation with 40 μM flavonoid for 24 h, the cells were further incubated with an MTT solution (0.5 mg/mL) for 4 h at 37 °C. Finally, after removal of the supernatant, 150 μL dimethyl sulphoxide was added to each well to dissolve crystallized MTT. Absorbance was read at 570 nm with a multiskan spectrum microplate reader (Thermo Labsystems, Waltham, MA, USA). The percentage cell viability relative to that of the control cells was used as the cytotoxicity measure.

[2] = Permeability (bidirectional transport) of flavonoids in Caco-2 cell monolayers; assay type: in vitro ADME; details: human; for Papp A→B at 60 min, 40 μM: Caco-2, apical to basolateral; for Papp A→B at 60 min, 40 μM / Papp B→A at 60 min, 40 μM: incubation 60 min, 37 °C, D-Hank's pH 7.4, mean ± SD, n = 3–6; for Papp B→A at 60 min, 40 μM: Caco-2, basolateral to apical; for efflux ratio at 60 min, 40 μM: pH 7.4, Caco-2 monolayer, read-out: Ratiop (ratio of Papp B to A to Papp A to B); for Papp at 1 h, 40 μM: Caco-2 monolayer
Description: Caco-2 cells were cultured in MEM supplemented with 10% FBS, 1% NEAA, penicillin (100 U/mL) and streptomycin (100 μg/mL) in an atmosphere of 5% CO2 and 90% relative humidity at 37 °C. All cells used in this study were between passages 35 and 45 [16].
Caco-2 cells were seeded at a density of about 8 × 10^4 cells/cm^2 on a 12 wells Millicell hanging insert and left to grow for 19–21 days to reach confluence. Culture medium was replaced every other day for 14 days and daily thereafter. The integrity and transport ability of the Caco-2 cells monolayer were examined by measuring the trans-epithelial electrical resistance (TEER) with a Millicell voltammeter (Millicell ERS-2, Merck Millipore, Billerica, MA, USA) and running standard assays using Lucifer yellow CH as paracellular flux marker. […] Differentiation of Caco-2 cells was checked after 4 and 12 days by determining the activity of alkaline phosphatase with an assay kit (Nanjing Jiancheng Bioengineering Institute, Nanjing, China) and after 21 days transmission electron microscopy was performed on Caco-2 monolayer to evaluate differentiation.
The Caco-2 cell monolayer was washed with D-Hank’s buffer (pH 7.4). Then, the flavonoid (40 μM) was added to either the apical (AP, 0.4 mL) or basolateral (BL, 1.95 mL) side, while the receiving chamber contained the corresponding volume of D-Hank’s buffer and incubated for 1 h at 37 °C. Solutions from both AP and BL sides of Caco-2 cell monolayer were collected and immediately frozen, lyophilized and preserved at −80 °C for high performance liquid chromatography (HPLC) analysis. Papp was calculated from Equation (1), where ΔQ/Δt is the rate of the flavonoid on the accepting chamber (μM/s), A is the surface area of the hanging insert (cm^2) and C0 is the initial concentration of tested flavonoid in donating chamber (μM/mL).(1) Papp=ΔQ/Δt/AC0

[3] = Stability of flavonoids in D-Hank's buffer relative to methanol; assay type: physicochemical; details: 20 μM flavonoid, HPLC peak area in D-Hank's / peak area in methanol × 100%
Description: The relative stability was expressed as the relative appearance of flavonoids in different solvents. Each flavonoid (20 μM) was dissolved in two different solvents, D-Hank’s and methanol. […] Relative concentration in D-Hank’s (%) = Peak area in D-Hank’s/Peak area in methanol × 100%(3)

[4] = test system: Caco-2 cell monolayer; test: Cellular accumulation (CA) of flavonoids in Caco-2 cell monolayer; details: for Ratioc (ratio of CA B to A to CA A to B): Caco-2 monolayer; for CA A to B: accumulated in cell monolayer after transport apical to basolateral; for CA A to B / CA B to A: 40 μM, 1 h, normalized to cellular protein, mean ± SD, n = 3; for CA B to A: accumulated in cell monolayer after transport basolateral to apical; for CA: both sides (CA A to B and CA B to A)
Description: (§1) After the collection of samples from both AP and BL sides, the hanging insert was rinsed twice with ice-cold D-Hank’s buffer to stop further transport, and lysed with 0.1% Triton X-100 in D-Hank’s buffer then placed in an ultrasonic bath for 15 min. Cell lysates were collected and centrifuged at 7000× g for 10 min. Supernatants were analyzed by BCA kit (Dingguochangsheng Biotechnology, Beijing, China) for protein content. After protein content assay, supernatants were immediately frozen, lyophilized and preserved at −80 °C. The flavonoid concentration in lysis solution was determined by HPLC and normalized with cellular protein content.
(§2) To determine both the permeability and CA of flavonoids in Caco-2 cells, the lyophilized samples were dissolved in running 120 to 200 μL methanol, and centrifuged at 7000× g for 5 min. Aliquot of 20 μL of the supernatant solution was used for assay using Waters e2695 HPLC system (Milford, MA, USA) fitted with an Amethyst C18-H column (250 mm × 4.6 mm i.d., 5 μm; Sepax, Newark, DE, USA). The mobile phase consisted of A (0.01 M phosphoric acid (H3PO4))/B (acetonitrile) with 1.0 mL/min flow rate. […] Peak area measurement was used to obtain standard calibration curves to determine concentration of each flavonoid.

[5] = Recovery (mass balance) of flavonoids during Caco-2 transport assay; assay type: in vitro ADME; details: human, Caco-2, mass balance, both sides of insert plus cells
Description: The recovery of the flavonoid glycosides during the transport assays was determined by mass balance and was measured as total amount of the flavonoids on both sides of the insert and in the Caco-2 cells.

[6] = test system: Caco-2 cell monolayer; details: human, Caco-2, 1 h, 40 μM, pH 7.4
Description: as §1, §2

[7] = pH 7.4, direction not specified (bilateral)
[8] = transport apical to basolateral, read-out: Recovery (A to B, %)
[9] = transport basolateral to apical, read-out: Recovery (B to A, %)
[10] = Caco-2, pH 7.4, as stated in text, direction not specified (bilateral)

| Compound | viability at 24 h, 40 μM [1] | Papp A→B at 60 min, 40 μM [2] | Papp B→A at 60 min, 40 μM [2] | efflux ratio at 60 min, 40 μM [2] | Relative concentration of flavonoids, D-Hank's/methanol (%) [3] | Ratioc (ratio of CA B to A to CA A to B) [4] | CA A to B [4] | CA B to A [4] | Relative concentration of flavonoids, D-Hank's/methanol (%) ([3]; listed as chrysin) | Papp at 1 h, 40 μM [2, 7] | CA [4] | recovery [5, 8] | recovery [5, 9] | Papp at 1 h, 40 μM [2, 10] | CA [6] |
| --- | --- | --- | --- | --- | --- | --- | --- | --- | --- | --- | --- | --- | --- | --- | --- |
| O=c1cc(-c2ccccc2)oc2ccccc12 [Compound 1, Flavone] | 96.3 ± 9.79% | 22.4 ± 1.37 ×10⁻⁶ cm/s | 21.7 ± 1.21 ×10⁻⁶ cm/s | 0.97 | 60.10% | 1.65 | 1.932 ± 0.051 µmol/g | 3.183 ± 0.504 ^a μmol/g |  |  |  |  |  |  |  |
| COc1ccc(-c2cc(=O)c3c(OC)c(OC)c(OC)c(OC)c3o2)cc1 [Compound 2, Tangertin] | 97.5 ± 3.53% | 21.9 ± 0.585 ×10⁻⁶ cm/s | 23.9 ± 0.45 ×10⁻⁶ cm/s | 1.1 | 12.09% | 0.90 | 2.706 ± 0.174 µmol/g | 2.423 ± 0.543 µmol/g |  |  |  |  |  |  |  |
| O=c1cc(-c2ccc(O)c(O)c2)oc2cc(O)cc(O)c12 [Compound 5, Luteolin] | 101 ± 4.19% | 10.1 ± 7.33 ×10⁻⁶ cm/s | 21.4 ± 2.12 ×10⁻⁶ cm/s | 2.12 | 87.51% | 2.23 | 3.876 ± 0.741 µmol/g | 8.639 ± 1.275 ^b μmol/g |  |  |  |  |  |  |  |
| O=c1cc(-c2ccc(O)cc2)oc2cc(O)cc(O)c12 [Compound 6, Apigenin] | 101 ± 4.56% | 17.1 ± 1.72 ×10⁻⁶ cm/s | 16.9 ± 1.02 ×10⁻⁶ cm/s | 0.99 | 41.76% | 1.72 | 4.415 ± 0.467 µmol/g | 7.610 ± 0.694 ^b μmol/g |  |  |  |  |  |  |  |
| O=c1cc(-c2ccccc2)oc2cc(O)cc(O)c12 [Compound 7, Chrysin] | 103 ± 4.94% | 6.78 ± 0.12 ×10⁻⁶ cm/s | 8.41 ± 0.62 ×10⁻⁶ cm/s | 1.24 | 47.63% | 2.26 | 3.902 ± 0.251 µmol/g | 8.828 ± 0.213 ^b μmol/g | less than 50% |  |  |  |  |  |  |
| O=c1c(O)c(-c2ccc(O)c(O)c2)oc2cc(O)cc(O)c12 [Compound 10, Quercetin] | 102 ± 5.19% | 2.55 ± 1.45 ×10⁻⁶ cm/s | 4.68 ± 0.41 ×10⁻⁶ cm/s | 1.84 | 52.10% |  |  |  |  |  |  |  |  |  |  |
| O=c1c(O)c(-c2cc(O)c(O)c(O)c2)oc2cc(O)cc(O)c12 [Compound 14, Myricetin] | 101 ± 3.15% | 0.29 ± 0.01 ×10⁻⁶ cm/s | 0.44 ± 0.01 ×10⁻⁶ cm/s | 1.5 | lower than 40% |  |  |  |  | < 0.5 ×10⁻⁶ cm/s | not detected |  |  |  |  |
| C[C@@H]1O[C@@H](Oc2c(-c3ccc(O)c(O)c3)oc3cc(O)cc(O)c3c2=O)[C@H](O)[C@H](O)[C@H]1O [Compound 16, Quercitrin] | 98.4 ± 3.86% | 4.24 ± 1.25 ×10⁻⁶ cm/s | 5.96 ± 1.2 ×10⁻⁶ cm/s |  | 116.67% |  |  |  |  | < 6 ×10⁻⁶ cm/s | not detected | 90.7 ± 8.85% | 76.8 ± 9.36% |  |  |
| C[C@@H]1O[C@@H](OC[C@H]2O[C@@H](Oc3c(-c4ccc(O)c(O)c4)oc4cc(O)cc(O)c4c3=O)[C@H](O)[C@@H](O)[C@@H]2O)[C@H](O)[C@H](O)[C@H]1O [Compound 17, Rutin] | 106 ± 5.48% | 4.04 ± 0.07 ×10⁻⁶ cm/s | 4.28 ± 0.44 ×10⁻⁶ cm/s |  | 66.82% |  |  |  |  |  | not detected | 98.2 ± 4.74% | 97 ± 1.67% | < 6 ×10⁻⁶ cm/s |  |
| COc1ccc([C@@H]2CC(=O)c3c(O)cc(O)cc3O2)cc1O [Compound 18, Hesperetin] | 100 ± 2.7% | 23.5 ± 0.85 ×10⁻⁶ cm/s | 27.9 ± 2.76 ×10⁻⁶ cm/s | 1.19 | 115.83% | 1.27 | 1.293 ± 0.086 µmol/g | 1.644 ± 0.300 µmol/g |  |  |  |  |  | > 20 ×10⁻⁶ cm/s |  |
| O=C1C[C@@H](c2ccc(O)cc2)Oc2cc(O)cc(O)c21 [Compound 19, Naringenin] | 95.6 ± 3.47% | 32.1 ± 2.98 ×10⁻⁶ cm/s | 35.3 ± 1.16 ×10⁻⁶ cm/s | 1.1 | 113.93% | 2.29 | 1.935 ± 0.305 µmol/g | 4.436 ± 0.299 ^b μmol/g |  |  | < 5 µmol/g |  |  | > 30 ×10⁻⁶ cm/s |  |
| O=C1C[C@@H](c2ccc(O)cc2)Oc2cc(O)ccc21 [Compound 21, Liquiritigenin] | 101 ± 4.27% | 31 ± 0.8 ×10⁻⁶ cm/s | 37 ± 1.97 ×10⁻⁶ cm/s |  |  |  | 0.635 ± 0.146 µmol/g | 1.234 ± 0.249 ^a μmol/g |  |  |  |  |  | > 30 ×10⁻⁶ cm/s | < 5 µmol/g |
| O=c1c(-c2ccc(O)cc2)coc2c([C@@H]3O[C@H](CO)[C@@H](O)[C@H](O)[C@H]3O)c(O)ccc12 [Compound 24, Puerarin] | 105 ± 6.13% | 2.25 ± 0.96 ×10⁻⁶ cm/s | 2.7 ± 0.41 ×10⁻⁶ cm/s |  | 30.31% |  |  |  |  |  | not detected | 87.4 ± 3.31% | 85.25 ± 0.6% | < 6 ×10⁻⁶ cm/s |  |
